For 24 molecules, Kd results are on record in PMC8162404, “Proteomimetic surface fragments distinguish targets by function” (Chemical Science, 2020).

Assay in all cases: Pull-down assay with immobilized protein and LSM libraries
One assay has as its target T1, S100A4 (Homo sapiens, UniProt P26447).
T1 construct: made in house; host or cells: Escherichia coli BL21(DE3)
In kind it is binding. Conditions: 1:1 binding assumed, read-out: Surface mapping KD (apparent). Summed up:
(§1)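 Buffers were HEPES pH 7.4 with 150 mM NaCl, plus 1 mM TCEP and 1 mM CaCl2 (50 mM HEPES) for S100A4 and S100B, 1 mM TCEP for Gal-1, and no additive for RecQ-WH. Immobilized protein at 64 µM was equilibrated 30 min with the LSM sublibrary, and unbound probes were measured by LC-MS.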

In a further assay the target is T2, Gal-1 (Homo sapiens, UniProt P09382).
T2 construct: made in house; host or cells: E. coli BL21(DE3)
T2 sequence (P09382 whole entry): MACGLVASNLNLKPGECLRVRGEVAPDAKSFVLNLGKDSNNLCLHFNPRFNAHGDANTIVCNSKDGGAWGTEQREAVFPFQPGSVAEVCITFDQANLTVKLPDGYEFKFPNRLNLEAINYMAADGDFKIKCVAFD
In kind it is binding. Conditions: 1:1 binding assumed, read-out: Surface mapping KD (apparent). In outline: as §1

Another assay addresses T3, CaM (Bos taurus, UniProt P62157).
T3 construct: made in house; host or cells: E. coli BL21 (DE3)
In kind it is binding, bovine. Summed up:
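CaM buffer was 20 mM HEPES pH 7.4, 150 mM NaCl, 5 mM CaCl2. LSM sublibrary members ([…]) incubated 30 min, RT, with equimolar His-tagged protein on Co-NTA resin. HPLC-MS measured unbound probes; bound fraction relative to resin-only background gave dissociation constants.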

The target of another assay is T4, S100B (Homo sapiens, UniProt P04271).
T4 construct: made in house; host or cells: Escherichia coli BL21(DE3)
T4 sequence (P04271 1-92): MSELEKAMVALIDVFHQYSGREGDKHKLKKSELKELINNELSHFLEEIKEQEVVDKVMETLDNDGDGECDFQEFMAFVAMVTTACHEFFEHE
Type of assay: binding. The settings on record: 1:1 binding assumed, read-out: Surface mapping KD (apparent). In outline: as §1

Setting [1] is: H14 library, 1:2 stoichiometry assumed, read-out: Surface mapping KD (apparent).
[2] abbreviates: H12 library, 1:2 stoichiometry assumed, read-out: Surface mapping KD (apparent).

Structures are written as SMILES. Read-outs that look alike come from different tables or passages of the source.

T1 sequence (P26447 whole entry): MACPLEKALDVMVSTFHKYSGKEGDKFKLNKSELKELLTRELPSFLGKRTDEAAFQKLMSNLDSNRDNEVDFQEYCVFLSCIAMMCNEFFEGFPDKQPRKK

As to `NC(=O)[C@H]1CCCC[C@@H]1NC(=O)C[C@H](CCC(=O)O)NC(=O)[C@H]1CCCC[C@@H]1NC(=O)[C@H]1CCCC[C@@H]1NC(=O)C[C@H](Cc1ccc(O)cc1)NC(=O)[C@H]1CCCC[C@@H]1N` [H14 YE], the Kd on S100A4 (H14 library) amounted to 371 µM.
With `CC(C)C[C@@H](CC(=O)N[C@H]1CCC[C@@H]1C(=O)N[C@H]1CCC[C@@H]1C(N)=O)NC(=O)[C@H]1CCC[C@@H]1NC(=O)[C@H]1CCC[C@@H]1NC(=O)C[C@H](CC(=O)O)NC(=O)[C@H]1CCC[C@@H]1NC(=O)[C@H]1CCC[C@@H]1N` [H12 DL], the results for the Kd at Gal-1 (H12 library) and at S100A4 (H12 library) were 249 µM and 449 µM, respectively.
`CC(C)C[C@@H](CC(=O)N[C@H]1CCCC[C@@H]1C(N)=O)NC(=O)[C@H]1CCCC[C@@H]1NC(=O)[C@H]1CCCC[C@@H]1NC(=O)C[C@H](CCCCN)NC(=O)[C@H]1CCCC[C@@H]1N` [H14 KL]: the Kd on CaM (setting [1]) worked out at 22 µM; at S100A4 (H14 library), 85 µM; on S100B (H14 library) it was 80 µM.
`CSCC[C@@H](CC(=O)N[C@H]1CCC[C@@H]1C(=O)N[C@H]1CCC[C@@H]1C(N)=O)NC(=O)[C@H]1CCC[C@@H]1NC(=O)[C@H]1CCC[C@@H]1NC(=O)C[C@H](Cc1ccccc1)NC(=O)[C@H]1CCC[C@@H]1NC(=O)[C@H]1CCC[C@@H]1N` [H12 FM]: the Kd was 42 µM on CaM, 197 µM on S100A4 (H12 library) and 39 µM on S100B (H12 library).
As to `NC(=O)[C@H]1CCC[C@@H]1NC(=O)[C@H]1CCC[C@@H]1NC(=O)C[C@H](Cc1ccccc1)NC(=O)[C@H]1CCC[C@@H]1NC(=O)[C@H]1CCC[C@@H]1NC(=O)C[C@H](Cc1ccc(O)cc1)NC(=O)[C@H]1CCC[C@@H]1NC(=O)[C@H]1CCC[C@@H]1N` [H12 YF], the Kd on CaM (setting [2]) was found to be 30 µM; at S100A4 (H12 library), 239 µM; on S100B (H12 library) it was 36 µM.
Consider `CSCC[C@@H](CC(=O)N[C@H]1CCC[C@@H]1C(=O)N[C@H]1CCC[C@@H]1C(N)=O)NC(=O)[C@H]1CCC[C@@H]1NC(=O)[C@H]1CCC[C@@H]1NC(=O)C[C@H](Cc1c[nH]c2ccccc12)NC(=O)[C@H]1CCC[C@@H]1NC(=O)[C@H]1CCC[C@@H]1N` [H12 WM], for which the Kd at CaM (setting [2]) is 42 µM; on S100A4 (H12 library), 98 µM; at S100B (H12 library), 20 µM.
For the molecule `CC[C@H](C)[C@@H](CC(=O)N[C@H]1CCC[C@@H]1C(=O)N[C@H]1CCC[C@@H]1C(N)=O)NC(=O)[C@H]1CCC[C@@H]1NC(=O)[C@H]1CCC[C@@H]1NC(=O)C[C@H](Cc1ccc(O)cc1)NC(=O)[C@H]1CCC[C@@H]1NC(=O)[C@H]1CCC[C@@H]1N` [H12 YI], the results for the Kd at Gal-1 (H12 library), on S100A4 (H12 library) and on S100B (H12 library) were 319 µM, 283 µM and 64 µM, respectively.
Take `NC(=O)[C@H]1CCC[C@@H]1NC(=O)[C@H]1CCC[C@@H]1NC(=O)C[C@H](Cc1ccc(O)cc1)NC(=O)[C@H]1CCC[C@@H]1NC(=O)[C@H]1CCC[C@@H]1NC(=O)C[C@H](Cc1c[nH]c2ccccc12)NC(=O)[C@H]1CCC[C@@H]1NC(=O)[C@H]1CCC[C@@H]1N` [H12 WY]: the figures for the Kd on CaM (setting [2]), at S100A4 (H12 library) and at S100B (H12 library) were 30 µM, 153 µM and 28 µM, respectively.
Turning to `NC(=O)[C@H]1CCC[C@@H]1NC(=O)[C@H]1CCC[C@@H]1NC(=O)C[C@H](Cc1ccc(O)cc1)NC(=O)[C@H]1CCC[C@@H]1NC(=O)[C@H]1CCC[C@@H]1NC(=O)C[C@H](Cc1ccccc1)NC(=O)[C@H]1CCC[C@@H]1NC(=O)[C@H]1CCC[C@@H]1N` [H12 FY], the Kd at S100A4 (H12 library) turned out to be 192 µM; at S100B (H12 library) it was 59 µM.
As for `NC(=O)C[C@@H](CC(=O)N[C@H]1CCC[C@@H]1C(=O)N[C@H]1CCC[C@@H]1C(=O)N[C@@H](CO)CC(=O)N[C@H]1CCC[C@@H]1C(=O)N[C@H]1CCC[C@@H]1C(N)=O)NC(=O)[C@H]1CCC[C@@H]1NC(=O)[C@H]1CCC[C@@H]1N` [H12 NS], the Kd at CaM (setting [2]) is 99 µM; on S100A4 (H12 library), 230 µM.
On to `CC[C@H](C)[C@@H](CC(=O)N[C@H]1CCC[C@@H]1C(=O)N[C@H]1CCC[C@@H]1C(N)=O)NC(=O)[C@H]1CCC[C@@H]1NC(=O)[C@H]1CCC[C@@H]1NC(=O)C[C@H](CC(=O)O)NC(=O)[C@H]1CCC[C@@H]1NC(=O)[C@H]1CCC[C@@H]1N` [H12 DI], for which the Kd turned out to be 249 µM at Gal-1 (H12 library) and 449 µM on S100A4 (H12 library).
On to `CSCC[C@@H](CC(=O)N[C@H]1CCC[C@@H]1C(=O)N[C@H]1CCC[C@@H]1C(=O)N[C@H](CC(=O)N[C@H]1CCC[C@@H]1C(=O)N[C@H]1CCC[C@@H]1C(N)=O)Cc1c[nH]c2ccccc12)NC(=O)[C@H]1CCC[C@@H]1NC(=O)[C@H]1CCC[C@@H]1N` [H12 MW], for which the Kd at CaM (setting [2]) is 42 µM; at S100A4 (H12 library), 170 µM; at S100B (H12 library), 26 µM.
With `CC(C)[C@@H](CC(=O)N[C@H]1CCC[C@@H]1C(=O)N[C@H]1CCC[C@@H]1C(N)=O)NC(=O)[C@H]1CCC[C@@H]1NC(=O)[C@H]1CCC[C@@H]1NC(=O)C[C@H](CCCNC(=N)N)NC(=O)[C@H]1CCC[C@@H]1NC(=O)[C@H]1CCC[C@@H]1N` [H12 RV], the figures for the Kd at Gal-1 (H12 library), on S100A4 (H12 library) and on S100B (H12 library) were 226 µM, 422 µM and 133 µM, respectively.
For `C[C@@H](CC(=O)N[C@H]1CCCC[C@@H]1C(N)=O)NC(=O)[C@H]1CCCC[C@@H]1NC(=O)[C@H]1CCCC[C@@H]1NC(=O)C[C@H](C)NC(=O)[C@H]1CCCC[C@@H]1N` [H14 AA], the Kd at CaM (setting [1]) was 402 µM; on Gal-1 (H14 library), 326 µM; on S100A4 (H14 library), 205 µM.
As to `CC[C@H](C)[C@@H](CC(=O)N[C@H]1CCCC[C@@H]1C(N)=O)NC(=O)[C@H]1CCCC[C@@H]1NC(=O)[C@H]1CCCC[C@@H]1NC(=O)C[C@H](CCCCN)NC(=O)[C@H]1CCCC[C@@H]1N` [H14 KI], the Kd on CaM (setting [1]) came out at 22 µM; at S100A4 (H14 library), 85 µM; on S100B (H14 library) it was 80 µM.
As to `NC(=O)C[C@@H](CC(=O)N[C@H]1CCCC[C@@H]1C(N)=O)NC(=O)[C@H]1CCCC[C@@H]1NC(=O)[C@H]1CCCC[C@@H]1NC(=O)C[C@H](Cc1ccccc1)NC(=O)[C@H]1CCCC[C@@H]1N` [H14 FN], the Kd at CaM (setting [1]) turned out to be 90 µM; at S100A4 (H14 library) it was 337 µM.
As for `CC(C)C[C@@H](CC(=O)N[C@H]1CCCC[C@@H]1C(=O)N[C@H]1CCCC[C@@H]1C(=O)N[C@@H](CCC(=O)O)CC(=O)N[C@H]1CCCC[C@@H]1C(N)=O)NC(=O)[C@H]1CCCC[C@@H]1N` [H14 LE], the Kd is 463 µM on Gal-1 (H14 library) and 427 µM on S100A4 (H14 library).
As to `N=C(N)NCCC[C@@H](CC(=O)N[C@H]1CCC[C@@H]1C(=O)N[C@H]1CCC[C@@H]1C(N)=O)NC(=O)[C@H]1CCC[C@@H]1NC(=O)[C@H]1CCC[C@@H]1NC(=O)C[C@H](CC(N)=O)NC(=O)[C@H]1CCC[C@@H]1NC(=O)[C@H]1CCC[C@@H]1N` [H12 NR], the values for the Kd at S100A4 (H12 library) and at S100B (H12 library) were 245 µM and 106 µM, respectively.
Turning to `NC(=O)[C@H]1CCC[C@@H]1NC(=O)[C@H]1CCC[C@@H]1NC(=O)C[C@H](Cc1c[nH]c2ccccc12)NC(=O)[C@H]1CCC[C@@H]1NC(=O)[C@H]1CCC[C@@H]1NC(=O)C[C@H](Cc1ccc(O)cc1)NC(=O)[C@H]1CCC[C@@H]1NC(=O)[C@H]1CCC[C@@H]1N` [H12 YW], the Kd at CaM (setting [2]) was determined as 30 µM; on S100A4 (H12 library), 153 µM; at S100B (H12 library), 28 µM.
Turning to `NC(=O)[C@H]1CCC[C@@H]1NC(=O)[C@H]1CCC[C@@H]1NC(=O)C[C@H](Cc1ccc(O)cc1)NC(=O)[C@H]1CCC[C@@H]1NC(=O)[C@H]1CCC[C@@H]1NC(=O)C[C@H](Cc1ccc(O)cc1)NC(=O)[C@H]1CCC[C@@H]1NC(=O)[C@H]1CCC[C@@H]1N` [H12 YY], the Kd at CaM (setting [2]) was found to be 443 µM; on Gal-1 (H12 library), 243 µM; at S100B (H12 library), 128 µM.
`CC(C)C[C@@H](CC(=O)N[C@H]1CCC[C@@H]1C(=O)N[C@H]1CCC[C@@H]1C(N)=O)NC(=O)[C@H]1CCC[C@@H]1NC(=O)[C@H]1CCC[C@@H]1NC(=O)C[C@H](Cc1ccc(O)cc1)NC(=O)[C@H]1CCC[C@@H]1NC(=O)[C@H]1CCC[C@@H]1N` [H12 YL]: the Kd on Gal-1 (H12 library) amounted to 402 µM; on S100A4 (H12 library), 180 µM; at S100B (H12 library), 81 µM.
Turning to `NC(=O)CC[C@@H](CC(=O)N[C@H]1CCC[C@@H]1C(=O)N[C@H]1CCC[C@@H]1C(=O)N[C@H](CC(=O)N[C@H]1CCC[C@@H]1C(=O)N[C@H]1CCC[C@@H]1C(N)=O)Cc1c[nH]c2ccccc12)NC(=O)[C@H]1CCC[C@@H]1NC(=O)[C@H]1CCC[C@@H]1N` [H12 QW], the Kd amounted to 55 µM on CaM (setting [2]), 412 µM on Gal-1 (H12 library) and 170 µM at S100B (H12 library).
In the same order, the values of `CC[C@H](C)[C@@H](CC(=O)N[C@H]1CCC[C@@H]1C(=O)N[C@H]1CCC[C@@H]1C(=O)N[C@@H](CCCNC(=N)N)CC(=O)N[C@H]1CCC[C@@H]1C(=O)N[C@H]1CCC[C@@H]1C(N)=O)NC(=O)[C@H]1CCC[C@@H]1NC(=O)[C@H]1CCC[C@@H]1N` [H12 IR] are 236 µM, 120 µM and 39 µM.
`CC(C)[C@@H](CC(=O)N[C@H]1CCC[C@@H]1C(=O)N[C@H]1CCC[C@@H]1C(=O)N[C@@H](CCC(N)=O)CC(=O)N[C@H]1CCC[C@@H]1C(=O)N[C@H]1CCC[C@@H]1C(N)=O)NC(=O)[C@H]1CCC[C@@H]1NC(=O)[C@H]1CCC[C@@H]1N` [H12 VQ]: the figures for the Kd at Gal-1 (H12 library) and on S100A4 (H12 library) were 436 µM and 497 µM, respectively.
